{
  "source": "patent US20120178124A1",
  "about": "“STEROL SIDE CHAIN-CLEAVING ENZYME PROTEIN AND USE THEREOF” (MITSUBISHI CHEMICAL CORPORATION, priority 2009, published 2012)",
  "key": {"CYP11A": {"target": "T1, CYP11A (Homo sapiens, UniProt P05108)", "T1 construct": "A 1.45-kb CYP11A1 gene fragment amplified as a result of the above-described reaction; expressed in transfected cells; host or cells: Escherichia coli BL21(DE3), plasmid pCYP11A-ARX (strain BL21CYP11)", "T1 sequence (P05108 40-521)": "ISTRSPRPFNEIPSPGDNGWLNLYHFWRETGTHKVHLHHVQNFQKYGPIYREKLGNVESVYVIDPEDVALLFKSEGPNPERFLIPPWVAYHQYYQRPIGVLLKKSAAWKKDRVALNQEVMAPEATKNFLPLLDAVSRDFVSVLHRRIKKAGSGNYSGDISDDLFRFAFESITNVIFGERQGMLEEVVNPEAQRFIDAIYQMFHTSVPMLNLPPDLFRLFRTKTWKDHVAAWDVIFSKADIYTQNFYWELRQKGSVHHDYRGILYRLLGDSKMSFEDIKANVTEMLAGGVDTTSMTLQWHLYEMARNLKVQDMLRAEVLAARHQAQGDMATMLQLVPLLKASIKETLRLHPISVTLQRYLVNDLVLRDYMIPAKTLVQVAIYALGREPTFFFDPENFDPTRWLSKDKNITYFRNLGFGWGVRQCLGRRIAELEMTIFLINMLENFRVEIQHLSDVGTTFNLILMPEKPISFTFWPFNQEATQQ", "assay": "Conversion reaction of substrates by CYP11A-expressing Escherichia coli", "assay_type": "cell-based", "protocol": "The Escherichia coli expression strain BP215 was inoculated into 2 ml of an M9 mix medium (Na2HPO4: 0.68%, KH2PO4: 0.3%, NaCl: 0.05%, NH4C;: 0.01%, Casamino acid: 1%, D-Glucose: 0.4%, CaCl2: 0.1 mM, MgCl2: 1 mM, Thiamine: 0.002%, FeSO4: 0.1 mM, Carbenicillin: 0.005%), and it was then subjected to shaking culture at 30° C. for 17 hours, so as to obtain pre-culture solution. 0.25 ml of this pre-culture solution was inoculated into 25 ml of the main culture medium (Na2HPO4: 0.68%, KH2PO4: 0.3%, NaCl: 0.05%, NH4Cl: 0.01%, Casamino acid: 1%, CaCl2: 0.1 mM, MgCl2: 1 mM, Thiamine: 0.002%, FeSO4: 0.1 mM, Carbenicillin: 0.005%, Overnight Express™ solution: 7%, 5-Aminolevlic acid: 0.008%) using Overnight Express™ Autoinduction System (Novagen Cat. No. 71300-4), and it was then subjected to shaking culture at 25° C. for 24 hours. 5 ml of the obtained main culture solution was centrifuged (3500 rpm, 10 minutes) to obtain cell mass, and 1 ml of CV2 buffer (50 mM (pH) potassium phosphate buffer containing glycerol: 2%, carbenicillin: 0.005%, and isopropyl β-D-1-thiogalactopyranoside: 0.1 mM) was added to the obtained cell mass. Thereafter, 0.01 ml of the methanol solution of 1% 4-cholesten-3-one and 0.02 ml of an aqueous solution of 25% methyl-β-cyclodextrin were added to the mixed solution, and the obtained mixture was then shaken at 28° C. for 5 hours for the reaction. After completion of the reaction, 4 ml of methanol was added to the reaction solution, and they were then fully mixed. The obtained mixture was centrifuged, and the upper layer was then analyzed by HPLC.\nA commercially available human testis cDNA (Origene Technologies, Inc.) was used as a template, and a CYP11A1 gene was amplified by PCR using a primer CYP11A-1F (SEQ ID NO: 19) and a primer CYP11A-2R (SEQ ID NO: 20), and also using KOD plus polymerase (TOYOBO Co., Ltd.). The temperature conditions applied during the PCR were 94° C./3 min, 30 cycles of (94° C./30 sec, 55° C./60 sec, and 72° C./90sec), and 72° C./5 min.\nA 1.45-kb CYP11A1 gene fragment amplified as a result of the above-described reaction was purified using QIAquick PCR purification Kit (manufactured by QIAGEN), and it was then digested with Nde I and Spe I. Thereafter, the digest was ligated to Escherichia coli expression vector pT7NS-camAB, using T4 DNA ligase, and Escherichia coli DH5α was then transformed with the obtained expression vector, so as to construct a plasmid pCYP11A-camAB. Subsequently, using T4 DNA ligase, the previously prepared bovine-derived adrenodoxin reductase protein-adrenodoxin gene (adr-adx) fragment was inserted into and ligated to each of the Spe I and Bam HI sites of the above-described plasmid, and Escherichia coli DH5a was then transformed with the obtained plasmid, so as to construct plasmid pCYP11A-ARX. Thereafter, Escherichia coli BL21(DE3) was transformed with the thus constructed plasmid, and the obtained cell strain was named as BL21CYP11. The used adx-adr fragment was amplified by PCR with a plasmid pKARX (Sawada et. al. Eur. J. Biochem. 265, 950-956,1999) as a template, using primer bAdxR-1F (SEQ ID NO: 21) and primer bAdx-2R (SEQ ID NO: 22), and also using KOD plus polymerase (manufactured by TOYOBO Co., Ltd.). The temperature condition applied during the PCR were 94° C./3 min, 25 cycles of (94° C./30 sec, 60° C./30 sec, and 72° C./120sec), and 72° C./5 min.\nEach substrate was subjected to the same reaction as that of Example 6, separately, and the reaction solution was then subjected to liquid separation using 1 ml of ethyl acetate. The reaction product and the substrate were extracted, and were then analyzed by HPLC."}, "[1]": {"target": "T2, Novosphingobium aromaticivorans ATCC 700278 P450scc CYP204A1, wild type, SEQ ID NO: 23 (Novosphingobium aromaticivorans, UniProt A4XF07)", "T2 sequence (A4XF07 1-473)": "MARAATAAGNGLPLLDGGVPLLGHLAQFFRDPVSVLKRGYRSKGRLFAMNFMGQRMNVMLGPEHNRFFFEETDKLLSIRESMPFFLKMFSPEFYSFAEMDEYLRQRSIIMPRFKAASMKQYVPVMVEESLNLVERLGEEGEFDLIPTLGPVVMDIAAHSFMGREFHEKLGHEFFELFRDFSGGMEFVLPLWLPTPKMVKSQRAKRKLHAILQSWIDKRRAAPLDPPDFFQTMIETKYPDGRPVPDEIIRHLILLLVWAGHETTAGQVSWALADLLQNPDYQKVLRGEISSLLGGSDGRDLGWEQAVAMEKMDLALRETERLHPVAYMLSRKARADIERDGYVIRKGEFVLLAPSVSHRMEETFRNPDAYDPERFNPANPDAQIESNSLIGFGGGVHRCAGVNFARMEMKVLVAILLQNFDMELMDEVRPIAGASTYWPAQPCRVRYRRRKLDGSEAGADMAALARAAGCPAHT", "assay": "Kinetics analysis of CYP204A1 with 4-cholesten-3-one (conversion to progesterone, cell-free extract)"}},
  "data": [
    {"smiles": "CC(C)CCC[C@@H](C)[C@H]1CC[C@H]2[C@@H]3CCC4=CC(=O)CC[C@]4(C)[C@H]3CC[C@]12C", "note": "[4-cholesten-3-one]", "values": [
      {"measurement": "added substrate remained", "setting": "CYP11A; same reaction as Example 6", "value": 100, "unit": "%"},
      {"measurement": "Conversion rate", "setting": "CYP11A; same reaction as Example 6 (28° C., 5 hours)", "value": 0, "unit": "%"},
      {"measurement": "Vmax", "setting": "[1]; 4-cholesten-3-one 0.1 to 500 μM, pH 7.5, 15° C., 60 minutes, Lineweaver-Burk plot", "value": 47.4, "unit": "mmol/min/mol"},
      {"measurement": "Vmax, relative activity", "setting": "[1]; relative to CYP204A1 (1.00)", "value": 1.00},
      {"measurement": "decrease rate of the enzyme protein activity (substrate inhibition)", "setting": "[1]; substrate concentration increased from 10 μM to 100 μM, pH 7.5, 15° C.", "value": 33, "unit": "%"}
    ]}
  ]
}
